Experimental data reported in paper PMC5613016, “GRL-09510, a Unique P2-Crown-Tetrahydrofuranylurethane -Containing HIV-1 Protease Inhibitor, Maintains Its Favorable Antiviral Activity against Highly-Drug-Resistant HIV-1 Variants in vitro” (Scientific Reports, 2017).
Read-outs that look alike come from different tables or passages of the source.

Columns and labels:
HIV-1LAI = test: microbe, parasite or virus in culture; type: cell-based; conditions: for EC50: Human immunodeficiency virus 1, MT2, MT-2 cells, 100 TCID50, MTT assay, read-out: EC50 Against HIV-1LAI; for Selectivity Index (CC50/EC50) MT2/HIV-1LAI: ratio of CC50 to EC50 against HIV-1LAI
Description: (§1) The susceptibility of HIV-1LAI or HIV-2ROD to various compounds was determined as previously described[20]–[22]. Briefly, MT-2 cells (10^4/ml) were exposed to 100 TCID50 of HIV-1LAI or HIV-2ROD in the presence or absence of various concentrations of compounds in 96-well plates and were incubated at 37 °C for 7 days. After incubation, 100 μl of the medium was removed from each well, 3-(4,5-dimetylthiazol-2-yl)-2,5-diphenyltetrazolium bromide (MTT) solution (10 μl, 7.5 mg/ml in PBS) was added to each well, followed by incubation at 37 °C for 2 h. […] To determine the sensitivity of clinically isolated HIV-1s to compounds, PHA-PBMC (10^6/ml) were exposed to 50 TCID50 of each HIV-1 and cultured in the presence or absence of various concentrations of compounds in 10-fold serial dilutions in 96-well plates. In determining the drug-susceptibility of certain laboratory HIV-1 strains, MT-4 cells were employed as target cells as previously described[23],[24]. MT-4 cells (10^5/ml) were exposed to 100 TCID50 of drug-resistant HIV-1s in the presence or absence of various concentrations of compounds and were incubated at 37 °C. On day 7, the supernatants were harvested and the amounts of p24 were determined by using a fully-automated chemiluminescent enzyme immunoassay system (Lumipulse f: Fujirebio, Tokyo)[35]–[37]. […] All assays were performed in duplicate, and EC50 shown in this report represent average values of two to four independent experiments. PHA-PBMCs were derived from a single donor in each independent experiment. The research protocols described in the present study were carried out in accordance with relevant guidelines and regulations, and were approved in Ethics Committee for Epidemiological and General Research at the Faculty of Life Sciences, Kumamoto University.

HIV-2ROD = test: microbe, parasite or virus in culture; type: cell-based; conditions: for EC50: Human immunodeficiency virus 2, MT2, MT-2 cells, 100 TCID50, MTT assay, read-out: EC50 Against HIV-2ROD; for Selectivity Index (CC50/EC50) MT2/HIV-2ROD: ratio of CC50 to EC50 against HIV-2ROD
Description: as §1

[1] = Cytotoxicity against MT-2 cells (MTT assay); type: cell-based; conditions: human
Description: as §1

HIV-1BaL (subtype B, R5) = test: p24 production inhibition in PHA-PBMC; type: cell-based; conditions: Human immunodeficiency virus 1, PHA-PBMC, p24 Gag production
Description: as §1

[2] = tested on: HIV-1ERS104pre (wild-type); test: p24 production inhibition in PHA-PBMC; type: cell-based; conditions: Human immunodeficiency virus 1, PHA-PBMC, p24 Gag production
Description: as §1

HIV-1MDR/B = test: p24 production inhibition in PHA-PBMC; type: cell-based; conditions: for EC50: Human immunodeficiency virus 1, PHA-PBMC, p24 Gag production; for fold change of EC50 HIV-1MDR/B: compared to EC50 for HIV-1ERS104pre
Description: as §1

HIV-1MDR/C = test: p24 production inhibition in PHA-PBMC; type: cell-based; conditions: for EC50: Human immunodeficiency virus 1, PHA-PBMC, p24 Gag production; for fold change of EC50 HIV-1MDR/C: compared to EC50 for HIV-1ERS104pre
Description: as §1

HIV-1MDR/G [3] = test: p24 production inhibition in PHA-PBMC; type: cell-based; conditions: for EC50: Human immunodeficiency virus 1, PHA-PBMC, p24 Gag production; for fold change of EC50 HIV-1MDR/G: compared to EC50 for HIV-1ERS104pre
Description: as §1

HIV-1MDR/TM = test: p24 production inhibition in PHA-PBMC; type: cell-based; conditions: for EC50: Human immunodeficiency virus 1, PHA-PBMC, p24 Gag production; for fold change of EC50 HIV-1MDR/TM: compared to EC50 for HIV-1ERS104pre
Description: as §1

HIV-1MDRmix DRV ^R 20P [4] = test: p24 production inhibition in PHA-PBMC; type: cell-based; conditions: for EC50: Human immunodeficiency virus 1, read-out: EC50 HIV-1MDRmix DRV ^R 20P, PHA-PBMC, p24 Gag production; for fold change of EC50 HIV-1MDRmix DRV ^R 20P: compared to EC50 for HIV-1ERS104pre
Description: as §1

[5] = tested on: HIV-1ME46 (subtype B, X4/R5); test: p24 production inhibition in PHA-PBMC; type: cell-based; conditions: Human immunodeficiency virus 1, PHA-PBMC, p24 Gag production
Description: as §1

HIV-1APV ^R 5μM [6] = test: p24 production inhibition in MT-4 cells; type: cell-based; conditions: for EC50: Human immunodeficiency virus 1, MT4, read-out: EC50 HIV-1APV ^R 5μM, MT-4 cells, p24 Gag production; for fold change of EC50 HIV-1APV ^R 5μM: number in parentheses, compared to HIV-1NL4-3
Description: as §1

HIV-1ATV ^R 5μM = test: p24 production inhibition in MT-4 cells; type: cell-based; conditions: for EC50: Human immunodeficiency virus 1, MT4, read-out: EC50 HIV-1ATV ^R 5μM, MT-4 cells, p24 Gag production; for fold change of EC50 HIV-1ATV ^R 5μM: number in parentheses, compared to HIV-1NL4-3
Description: as §1

HIV-1LPV ^R 5μM = test: p24 production inhibition in MT-4 cells; type: cell-based; conditions: for EC50: Human immunodeficiency virus 1, MT4, read-out: EC50 HIV-1LPV ^R 5μM, MT-4 cells, p24 Gag production; for fold change of EC50 HIV-1LPV ^R 5μM: number in parentheses, compared to HIV-1NL4-3
Description: as §1

HIV-1NL4-3 [7] = test: p24 production inhibition in MT-4 cells; type: cell-based; conditions: Human immunodeficiency virus 1, MT4, MT-4 cells, p24 Gag production, Table 3
Description: as §1

HIV-1_9510 ^R 36P = test: p24 production inhibition in MT-4 cells; type: cell-based; conditions: for EC50: Human immunodeficiency virus 1, MT4, read-out: EC50 HIV-19510RP36; for fold change of EC50 HIV-19510RP36: compared to EC50 for HIV-1NL4-3, Supplemental Table 3
Description: as §1

[8] = tested on: HIV-192UG029 (subtype A, X4); test: p24 production inhibition in PHA-PBMC; type: cell-based, HIV-1; conditions: Human immunodeficiency virus 1, read-out: EC50 HIV-192UG029 (subtype A, X4)
Description: as §1

HIV-1NL4-3 [9] = tested on: HIV-1NL4-3; parameters: method as in PMID 14506019; conditions: HIV-1NL4-3 in MT-4 cells, increasing concentrations; previously reported; cited from earlier work
[10] = tested on: HIV-1ERS104pre (wild-type); conditions: PHA-PBMs, p24 assay, previously reported; and 22; read-out: EC50 HIV-1WT/ERS104pre; cited from earlier work
HIV-1MDR/G [11] = tested on: HIV-1MDR/G; parameters: method as in earlier work; conditions: and 22, cited from earlier work
HIV-1MDRmix DRV ^R 20P [12] = conditions: cited from earlier work
HIV-1NL4-3 [13] = conditions: MT-4 cells, p24 assay, previously reported; and 22; cited from earlier work
HIV-1APV ^R 5μM [14] = tested on: HIV-1APV ^R 5μM; parameters: method as in earlier work; conditions: and 22, cited from earlier work
[15] = compared to HIV-1WT/ERS104pre, previously reported data

Row | Structure (SMILES) | EC50 (HIV-1LAI) [nM] | Selectivity Index (CC50/EC50) MT2/HIV-1LAI (HIV-1LAI) | EC50 (HIV-2ROD) [nM] | Selectivity Index (CC50/EC50) MT2/HIV-2ROD (HIV-2ROD) | CC50 [1] [nM] | EC50 (HIV-1BaL (subtype B, R5)) [nM] | EC50 [2] [nM] | EC50 (HIV-1MDR/B) [nM] | fold change of EC50 HIV-1MDR/B (HIV-1MDR/B) | EC50 (HIV-1MDR/C) [nM] | fold change of EC50 HIV-1MDR/C (HIV-1MDR/C) | EC50 (HIV-1MDR/G [3]) [nM] | EC50 (HIV-1MDRmix DRV ^R 20P [4]) [nM] | EC50 [5] [nM] | EC50 (HIV-1APV ^R 5μM [6]) [nM] | EC50 (HIV-1ATV ^R 5μM) [nM] | EC50 (HIV-1LPV ^R 5μM) [nM] | EC50 (HIV-1NL4-3 [7]) [nM] | EC50 (HIV-1_9510 ^R 36P) [nM] | EC50 [8] [nM] | also measured
1 | CC(C)CN(C[C@@H](O)[C@H](Cc1ccccc1)NC(=O)O[C@H]1CCOC1)S(=O)(=O)c1ccc(N)cc1 [APV, Amprenavir] | 37 ± 7 | 1,303 | 297 ± 174 | 162 | 48200 ± 9900 | 29 ± 2 | 39 ± 5 | 420 ± 50 | 11 | 250 ± 50 | 6 | 300 ± 90 | > 1000 | 22 ± 40 | > 1000 | 350 ± 70 | > 1000 | 30 ± 6 | 270 ± 20 | 41 ± 2 | fold change of EC50 HIV-1MDR/G (HIV-1MDR/G [3]): 8; EC50 (HIV-1MDR/TM): 320 ± 50 nM; fold change of EC50 HIV-1MDR/TM (HIV-1MDR/TM): 8; fold change of EC50 HIV-1MDRmix DRV ^R 20P (HIV-1MDRmix DRV ^R 20P [4]): > 26; fold change of EC50 HIV-1APV ^R 5μM (HIV-1APV ^R 5μM [6]): > 25; fold change of EC50 HIV-1ATV ^R 5μM (HIV-1ATV ^R 5μM): 9; fold change of EC50 HIV-1LPV ^R 5μM (HIV-1LPV ^R 5μM): > 25; fold change of EC50 HIV-19510RP36 (HIV-1_9510 ^R 36P): 9; passage at which selection concentration reached 5 µM (HIV-1NL4-3 [9]): ≥ 20
2 | COC(=O)N[C@H](C(=O)N[C@@H](Cc1ccccc1)[C@@H](O)CN(Cc1ccc(-c2ccccn2)cc1)NC(=O)[C@@H](NC(=O)OC)C(C)(C)C)C(C)(C)C [ATV, Atazanavir] | 4 ± 1 | 8,100 | 17 ± 3 | 1,906 | 32400 ± 1000 | 2 ± 1 | 3.1 ± 0.6 | 360 ± 160 | 116 | 50 ± 20 | 16 | 30 ± 10 | > 1000 | 4.2 ± 0.5 | 371 ± 8 | > 1000 | 38 ± 1 | 4.3 ± 0.9 | 24 ± 1 | 6 ± 3 | fold change of EC50 HIV-1MDR/G (HIV-1MDR/G [3]): 10; EC50 (HIV-1MDR/TM): 71 ± 8 nM; fold change of EC50 HIV-1MDR/TM (HIV-1MDR/TM): 23; fold change of EC50 HIV-1MDRmix DRV ^R 20P (HIV-1MDRmix DRV ^R 20P [4]): > 323; fold change of EC50 HIV-1APV ^R 5μM (HIV-1APV ^R 5μM [6]): 86; fold change of EC50 HIV-1ATV ^R 5μM (HIV-1ATV ^R 5μM): > 233; fold change of EC50 HIV-1LPV ^R 5μM (HIV-1LPV ^R 5μM): 9; fold change of EC50 HIV-19510RP36 (HIV-1_9510 ^R 36P): 6
3 | CC(C)CN(C[C@@H](O)[C@H](Cc1ccccc1)NC(=O)O[C@H]1CO[C@H]2OCC[C@H]21)S(=O)(=O)c1ccc(N)cc1 [DRV, Darunavir] | 5 ± 2 | – | 14 ± 7 | – | – | 1.8 ± 0.1 | 4.4 ± 0.9 | – | – | – | – | 20 ± 9 | 300 ± 60 | 2.3 ± 0.4 | 410 ± 10 | 24 ± 60 | 34 ± 5 | 4.5 ± 0.4 | 41 ± 1 | 5.5 ± 0.1 | CC50 at 7 days [1]: 101000 ± 8800 nM
4 | COc1ccc(S(=O)(=O)N(CC(C)C)C[C@@H](O)[C@H](Cc2ccccc2)NC(=O)O[C@H]2CO[C@H]3O[C@@H]4OCC[C@@H]4[C@H]32)cc1 [GRL-0519] | – | – | – | – | – | – | – | – | – | – | – | – | – | – | – | – | – | – | – | – | EC50 [10]: 0.6 ± 0.2 nM; EC50 (HIV-1MDR/G [11]; PHA-PBMs, p24 assay, previously reported): 2.6 ± 1.3 nM; fold change in EC50 HIV-1MDR/G (HIV-1MDR/G [11]; [15]): 4; EC50 (HIV-1MDRmix DRV ^R 20P [12]; PHA-PBMs, p24 assay, previously reported, read-out: EC50 HIV-1MDRmixDRVR20P): 30 ± 9.8 nM; fold change in EC50 HIV-1MDRmixDRVR20P (HIV-1MDRmix DRV ^R 20P [12]; [15]): 50; EC50 (HIV-1NL4-3 [13]): 0.5 ± 0.1 nM; EC50 (HIV-1APV ^R 5μM [14]; MT-4 cells, p24 assay, previously reported, read-out: EC50 HIV-1APVR5M): 38 ± 0.9 nM; fold change in EC50 HIV-1APVR5M (HIV-1APV ^R 5μM [14]; compared to HIV-1NL4-3, previously reported data): 76
